# Biological target: T1, human PAH with the R408W mutation (A375 R408W cells) (Homo sapiens, UniProt P00439, R408W)
# T1 construct: expressed in transfected cells
# T1 sequence (P00439 1-452 R408W): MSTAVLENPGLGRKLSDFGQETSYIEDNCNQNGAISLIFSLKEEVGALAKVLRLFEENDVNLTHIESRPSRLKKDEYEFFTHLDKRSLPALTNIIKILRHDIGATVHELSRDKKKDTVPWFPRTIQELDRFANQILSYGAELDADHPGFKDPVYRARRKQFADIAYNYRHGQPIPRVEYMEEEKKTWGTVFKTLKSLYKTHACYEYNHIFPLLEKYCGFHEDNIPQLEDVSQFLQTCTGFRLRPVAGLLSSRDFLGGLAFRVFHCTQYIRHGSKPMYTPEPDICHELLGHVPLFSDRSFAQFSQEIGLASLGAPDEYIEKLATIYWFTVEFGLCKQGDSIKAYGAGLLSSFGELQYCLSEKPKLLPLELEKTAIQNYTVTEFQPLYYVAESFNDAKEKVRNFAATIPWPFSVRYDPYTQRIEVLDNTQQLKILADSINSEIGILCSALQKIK
# Test: Cell Based Phenylalanine Flux Assay
# Settings: A375 R408W cells; 24 hrs with compound, then 20 μM sepiapterin and 800 μM 13C9,15N-Phenylalanine for 4 hours; 13C-Tyrosine by LC-MS; average where tested multiple times
# Procedure, shortened: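 Stable R408W PAH A375 cells: 24 h compound pretreatment in duplicate, then 4 h with 800 μM isotope-labelled Phe and 20 μM sepiapterin. Labelled Tyr output by LC-MS; AC50 averaged where repeated.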
row,SMILES,AC50 [nM]
1,"CN1CCN(c2ccc3c(C(=O)N4CCc5[nH]cnc5[C@@H]4c4nc5cccc(F)c5o4)cnn3c2)CC1 [Example 364, (R)-(4-(7-fluorobenzo[d]oxazol-2-yl)-6,7-dihydro-1H-imidazo[4,5-c]pyridin-5(4H)-yl)(6-(4-methylpiperazin-1-yl)pyrazolo[1,5-a]pyridin-3-yl)methanone]",1000 to 5000
2,"O=C(c1ocnc1C1CC1)N1CCc2[nH]cnc2[C@H]1c1nc2cc(F)ccc2o1 [Example 41, (S)-(4-cyclopropyloxazol-5-yl)(4-(5-fluorobenzo[d]oxazol-2-yl)-6,7-dihydro-1H-imidazo[4,5-c]pyridin-5(4H)-yl)methanone]",≤ 500
3,"Cc1ncoc1C(=O)N1CCc2[nH]cnc2[C@@H]1c1nc2ccccc2o1 [Example 794, (R)-(4-(benzo[d]oxazol-2-yl)-6,7-dihydro-1H-imidazo[4,5-c]pyridin-5(4H)-yl)(4-methyloxazol-5-yl)methanone]",1000 to 5000
4,"COCc1nc(C(F)F)c(C(=O)N2CCc3[nH]cnc3[C@@H]2c2nc3cc(F)ccc3o2)o1 [Example 109, (R)-(4-(difluoromethyl)-2-(methoxymethyl)oxazol-5-yl)(4-(5-fluorobenzo[d]oxazol-2-yl)-6,7-dihydro-1H-imidazo[4,5-c]pyridin-5(4H)-yl)methanone]",1000 to 5000
5,"O=C(c1oc(-c2ccccn2)nc1C(F)(F)F)N1CCc2[nH]cnc2[C@H]1c1nc2cc(F)ccc2o1 [Example 49, (S)-(4-(5-fluorobenzo[d]oxazol-2-yl)-6,7-dihydro-1H-imidazo[4,5-c]pyridin-5(4H)-yl)(2-(pyridin-2-yl)-4-(trifluoromethyl)oxazol-5-yl)methanone]",≤ 500
6,"Cn1nccc1C(=O)N1Cc2[nH]cnc2[C@H]1c1nc2ccccc2o1 [Example 924, (S)-(4-(benzo[d]oxazol-2-yl)-4,6-dihydropyrrolo[3,4-d]imidazol-5(1H)-yl)(1-methyl-1H-pyrazol-5-yl)methanone]",1000 to 5000
7,"Cn1cc(-c2ncc(C(=O)N3CCc4[nH]cnc4[C@@H]3c3nc4cc(F)ccc4o3)s2)cn1 [Example 10, (R)-(4-(5-fluorobenzo[d]oxazol-2-yl)-6,7-dihydro-1H-imidazo[4,5-c]pyridin-5(4H)-yl)(2-(1-methyl-1H-pyrazol-4-yl)thiazol-5-yl)methanone]",1000 to 5000
8,"O=C(c1nnc(-c2cccnc2)o1)N1CCc2[nH]cnc2[C@@H]1c1nc2cc(F)ccc2o1 [Example 400, (R)-(4-(5-fluorobenzo[d]oxazol-2-yl)-6,7-dihydro-1H-imidazo[4,5-c]pyridin-5(4H)-yl)(5-(pyridin-3-yl)-1,3,4-oxadiazol-2-yl)methanone]",1000 to 5000
9,"O=C(c1nnc(-c2ncccc2F)o1)N1CCc2[nH]cnc2[C@H]1c1nc2c(F)ccc(F)c2o1 [Example 800, (S)-(4-(4,7-difluorobenzo[d]oxazol-2-yl)-6,7-dihydro-1H-imidazo[4,5-c]pyridin-5(4H)-yl)(5-(3-fluoropyridin-2-yl)-1,3,4-oxadiazol-2-yl)methanone]",≤ 500
10,"COc1cccc2oc([C@@H]3c4nc[nH]c4CCN3C(=O)c3ocnc3C(F)F)nc12 [Example 429, (S)-(4-(difluoromethyl)oxazol-5-yl)(4-(4-methoxybenzo[d]oxazol-2-yl)-6,7-dihydro-1H-imidazo[4,5-c]pyridin-5(4H)-yl)methanone]",≤ 500
11,Cn1ccc(-c2nnc(C(=O)N3CCc4[nH]cnc4[C@H]3c3nc4c(F)ccc(F)c4o3)o2)n1 [Example 813],≤ 500
12,"Cc1ccc2nc([C@H]3c4nc[nH]c4CCN3C(=O)c3oc(C(C)(C)O)nc3C(F)F)oc2c1 [Example 316, (R)-(4-(difluoromethyl)-2-(2-hydroxypropan-2-yl)oxazol-5-yl)(4-(6-methylbenzo[d]oxazol-2-yl)-6,7-dihydro-1H-imidazo[4,5-c]pyridin-5(4H)-yl)methanone]",1000 to 5000
13,"O=C(c1oc(C2(O)CC2)nc1C(F)F)N1CCc2[nH]cnc2[C@H]1c1nc2c(F)cccc2o1 [Example 215, (S)-(4-(difluoromethyl)-2-(1-hydroxycyclopropyl)oxazol-5-yl)(4-(4-fluorobenzo[d]oxazol-2-yl)-6,7-dihydro-1H-imidazo[4,5-c]pyridin-5(4H)-yl)methanone]",500 to 1000
14,"Cn1nc(Br)nc1C(=O)N1CCc2[nH]cnc2[C@@H]1c1nc2cccc(F)c2o1 [Example 474, (R)-(3-bromo-1-methyl-1H-1,2,4-triazol-5-yl)(4-(7-fluorobenzo[d]oxazol-2-yl)-6,7-dihydro-1H-imidazo[4,5-c]pyridin-5(4H)-yl)methanone]",1000 to 5000
15,"CC(C)(O)c1ncc(C(=O)N2CCc3[nH]cnc3[C@H]2c2nc3c(F)cccc3o2)o1 [Example 893, (S)-(4-(4-fluorobenzo[d]oxazol-2-yl)-6,7-dihydro-1H-imidazo[4,5-c]pyridin-5(4H)-yl)(2-(2-hydroxypropan-2-yl)oxazol-5-yl)methanone]",1000 to 5000
16,"Cc1cccc2oc([C@H]3c4nc[nH]c4CCN3C(=O)c3cnn4cc(N5CCC(O)CC5)ccc34)nc12 [Example 702, (R)-(6-(4-hydroxypiperidin-1-yl)pyrazolo[1,5-a]pyridin-3-yl)(4-(4-methylbenzo[d]oxazol-2-yl)-6,7-dihydro-1H-imidazo[4,5-c]pyridin-5(4H)-yl)methanone]",≥ 5000
17,"COc1ccc2c(C(=O)N3CCc4[nH]cnc4[C@H]3c3nc4cccc(F)c4o3)cnn2c1 [Example 325, (S)-(4-(7-fluorobenzo[d]oxazol-2-yl)-6,7-dihydro-1H-imidazo[4,5-c]pyridin-5(4H)-yl)(6-methoxypyrazolo[1,5-a]pyridin-3-yl)methanone]",≤ 500
18,"Cn1cnc(-c2nc(C(F)F)c(C(=O)N3CCc4[nH]cnc4[C@@H]3c3nc4ccccc4o3)o2)c1 [Example 785, (R)-(4-(benzo[d]oxazol-2-yl)-6,7-dihydro-1H-imidazo[4,5-c]pyridin-5(4H)-yl)(4-(difluoromethyl)-2-(1-methyl-1H-imidazol-4-yl)oxazol-5-yl)methanone]",≥ 5000
19,"O=C(c1ccnn1C(F)F)N1CCc2[nH]cnc2[C@@H]1c1nc2ccc(F)c(F)c2o1 [Example 514, (R)-(4-(6,7-difluorobenzo[d]oxazol-2-yl)-6,7-dihydro-1H-imidazo[4,5-c]pyridin-5(4H)-yl)(1-(difluoromethyl)-1H-pyrazol-5-yl)methanone]",1000 to 5000
20,"Cc1ccc2oc([C@@H]3c4nc[nH]c4CCN3C(=O)c3oc(-c4cncn4C)nc3C(F)F)nc2c1 [Example 758, (S)-(4-(difluoromethyl)-2-(1-methyl-1H-imidazol-5-yl)oxazol-5-yl)(4-(5-methylbenzo[d]oxazol-2-yl)-6,7-dihydro-1H-imidazo[4,5-c]pyridin-5(4H)-yl)methanone]",≤ 500
21,"O=C(c1ocnc1C(F)F)N1CCc2[nH]cnc2[C@@H]1c1nc2cccc(F)c2o1 [Example 900, (R)-(4-(difluoromethyl)oxazol-5-yl)(4-deuterium-4-(7-fluorobenzo[d]oxazol-2-yl)-6,7-dihydro-1H-imidazo[4,5-c]pyridin-5(4H)-yl)methanone]",500 to 1000
22,"CC(C)(O)c1nc(Cl)c(C(=O)N2CCc3[nH]cnc3[C@@H]2c2nc3ccc(F)cc3o2)o1 [Example 270, (R)-(4-chloro-2-(2-hydroxypropan-2-yl)oxazol-5-yl)(4-(6-fluorobenzo[d]oxazol-2-yl)-6,7-dihydro-1H-imidazo[4,5-c]pyridin-5(4H)-yl)methanone]",≥ 5000
23,"Cn1cc(-c2nnc(C(=O)N3CCc4[nH]cnc4[C@@H]3c3nc4ccccc4o3)o2)cn1 [Example 582, (R)-(4-(benzo[d]oxazol-2-yl)-6,7-dihydro-1H-imidazo[4,5-c]pyridin-5(4H)-yl)(5-(1-methyl-1H-pyrazol-4-yl)-1,3,4-oxadiazol-2-yl)methanone]",1000 to 5000

# Same assay, conditions: A375 cells expressing R408W PAH; 24 hrs with compound, then 20 μM sepiapterin and 800 μM 13C9,15N-Phenylalanine for 4 hours; 13C-Tyrosine by LC-MS; average where tested multiple times
row,SMILES,AC50 [nM]
1,O=C(CCc1nccs1)N1CCc2[nH]cnc2C1c1nc2ccc(F)cc2o1 (stereo not shown),≥ 5000
2,Cc1ccc2oc(C3c4nc[nH]c4CCN3C(=O)c3nc(C)nn3C)nc2c1 (stereo not shown),1000 to 5000
3,"CN(C)Cc1nnc(C(=O)N2CCc3[nH]cnc3[C@@H]2c2nc3cc(F)ccc3o2)o1 (single isomer, unassigned)",≥ 5000
4,Cn1ccc(C(=O)N2CCc3[nH]cnc3C2c2nc3cc(F)ccc3o2)n1 (stereo not shown),1000 to 5000
5,Cn1cc(-c2ncc(C(=O)N3CCc4[nH]cnc4C3c3nc4cc(F)ccc4o3)o2)cn1 (stereo not shown),1000 to 5000
6,"CC(C)(C)OC(=O)N1CCN(c2ccc3c(C(=O)N4CCc5[nH]cnc5C4c4nc5cc(F)ccc5o4)cnn3c2)CC1 (single isomer, unassigned) [4R enantiomer of tert-butyl 4-{3-[4-(5-fluoro-1,3-benzoxazol]",≥ 5000
7,Cc1nc(-c2ccccn2)sc1C(=O)N1CCc2[nH]cnc2C1c1nc2cc(F)ccc2o1 (stereo not shown),≥ 5000
8,O=C(c1nnc(-c2cn[nH]c2)o1)N1CCc2[nH]cnc2C1c1nc2ccc(F)cc2o1 (stereo not shown),1000 to 5000
9,Cc1cccc2nc(C3c4nc[nH]c4CCN3C(=O)c3ccn(-c4ccccn4)n3)oc12 (stereo not shown),1000 to 5000
10,CC(C)(O)c1nc(Br)c(C(=O)N2CCc3[nH]cnc3C2c2nc3cc(F)ccc3o2)s1 (stereo not shown),1000 to 5000
11,O=C1CCCN1CCOc1ccc2c(C(=O)N3CCc4[nH]cnc4C3c3nc4cc(F)ccc4o3)cnn2c1 (stereo not shown),≥ 5000

# From patent US20250171437A1 (Agios Pharmaceuticals,Inc., priority 2022, published 2025)
